The record followed here is PMC5607459, “Discovery of a Potent Inhibitor Class with High Selectivity toward Clostridial Collagenases” (Journal of the American Chemical Society, 2017).

Data set [1] has as its target amine-coupled peptidase domain of ColH (ColH-PD) (Hathewaya histolytica, UniProt Q46085).
Data set [2] has as its target T1, ColH-PD (Hathewaya histolytica, UniProt Q46085). Nature of the data set: biochemical.
In data set [3] the target is ColG-CU (Hathewaya histolytica, UniProt Q9X721). Nature of the data set: biochemical. The note with it: for remaining activity at 100 µM: read-out: residual activity of ColG. On the set-up: species or system C. histolyticum.
ColG-CU, sequence (Q9X721 111-786): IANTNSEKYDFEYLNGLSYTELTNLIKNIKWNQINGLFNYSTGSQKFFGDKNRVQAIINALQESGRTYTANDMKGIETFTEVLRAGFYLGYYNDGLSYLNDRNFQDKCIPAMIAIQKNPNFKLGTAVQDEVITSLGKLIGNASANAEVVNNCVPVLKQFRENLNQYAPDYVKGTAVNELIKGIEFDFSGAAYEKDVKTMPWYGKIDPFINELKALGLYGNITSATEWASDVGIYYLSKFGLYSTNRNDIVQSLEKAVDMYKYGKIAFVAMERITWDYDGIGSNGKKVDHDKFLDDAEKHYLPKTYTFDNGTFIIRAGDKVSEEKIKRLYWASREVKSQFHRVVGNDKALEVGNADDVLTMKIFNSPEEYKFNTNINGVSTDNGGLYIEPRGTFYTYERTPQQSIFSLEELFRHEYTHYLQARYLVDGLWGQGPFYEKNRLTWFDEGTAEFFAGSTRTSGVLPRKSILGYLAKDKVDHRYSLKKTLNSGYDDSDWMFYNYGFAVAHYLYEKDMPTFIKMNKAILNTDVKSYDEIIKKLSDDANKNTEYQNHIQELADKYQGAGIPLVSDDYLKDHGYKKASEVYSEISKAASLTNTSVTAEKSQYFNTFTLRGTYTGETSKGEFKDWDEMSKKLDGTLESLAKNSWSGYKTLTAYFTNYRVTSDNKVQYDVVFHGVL
Data set [4] deals with T2, catalytic domain of MMP-2 (Homo sapiens, UniProt P08253).
T2 construct: The catalytic domains of MMP-1, -2, -3, -7, -8 and -14; purchased AnaSpec (Fremont, CA, USA)
T2 sequence (P08253 110-465 limits assumed): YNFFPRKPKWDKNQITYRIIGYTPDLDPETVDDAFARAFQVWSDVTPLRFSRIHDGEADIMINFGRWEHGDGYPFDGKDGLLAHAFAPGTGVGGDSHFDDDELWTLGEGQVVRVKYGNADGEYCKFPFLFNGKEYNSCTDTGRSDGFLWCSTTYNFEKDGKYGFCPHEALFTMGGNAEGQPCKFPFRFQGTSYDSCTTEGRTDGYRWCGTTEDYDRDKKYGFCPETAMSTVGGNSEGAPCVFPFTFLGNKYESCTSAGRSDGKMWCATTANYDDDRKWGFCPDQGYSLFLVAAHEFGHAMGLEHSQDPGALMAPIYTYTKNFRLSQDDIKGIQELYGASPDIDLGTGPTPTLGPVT
Nature of the data set: Human MMP inhibition assay, MMP-2. The note with it: 100 μM compound. The data set is classed as biochemical.

In data set [5] the target is ColT-PD (Clostridium tetani, UniProt Q899Y1). Nature of the data set: biochemical. The arrangement: species or system C. tetani. Particulars: for remaining activity at 100 µM: read-out: residual activity of ColT.
ColT-PD, sequence (Q899Y1 340-731 limits assumed): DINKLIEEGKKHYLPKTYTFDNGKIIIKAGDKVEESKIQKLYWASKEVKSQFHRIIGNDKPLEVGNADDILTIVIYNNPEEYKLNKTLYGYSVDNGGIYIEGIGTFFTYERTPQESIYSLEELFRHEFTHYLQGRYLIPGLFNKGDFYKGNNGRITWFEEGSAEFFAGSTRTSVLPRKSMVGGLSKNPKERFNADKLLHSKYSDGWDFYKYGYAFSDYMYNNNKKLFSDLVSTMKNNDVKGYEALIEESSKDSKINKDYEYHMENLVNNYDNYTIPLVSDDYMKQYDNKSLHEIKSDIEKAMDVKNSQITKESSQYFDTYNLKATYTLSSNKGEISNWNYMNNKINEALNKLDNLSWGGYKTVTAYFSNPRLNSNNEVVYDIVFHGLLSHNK
In data set [6] the target is ColQ1-CU (Bacillus cereus, UniProt B9J3S4). Nature of the data set: biochemical. The arrangement: species or system Bacillus cereus strain Q1. Particulars: for remaining activity at 100 µM: read-out: residual activity of ColQ1.
ColQ1-CU, sequence (B9J3S4 94-765 limits assumed): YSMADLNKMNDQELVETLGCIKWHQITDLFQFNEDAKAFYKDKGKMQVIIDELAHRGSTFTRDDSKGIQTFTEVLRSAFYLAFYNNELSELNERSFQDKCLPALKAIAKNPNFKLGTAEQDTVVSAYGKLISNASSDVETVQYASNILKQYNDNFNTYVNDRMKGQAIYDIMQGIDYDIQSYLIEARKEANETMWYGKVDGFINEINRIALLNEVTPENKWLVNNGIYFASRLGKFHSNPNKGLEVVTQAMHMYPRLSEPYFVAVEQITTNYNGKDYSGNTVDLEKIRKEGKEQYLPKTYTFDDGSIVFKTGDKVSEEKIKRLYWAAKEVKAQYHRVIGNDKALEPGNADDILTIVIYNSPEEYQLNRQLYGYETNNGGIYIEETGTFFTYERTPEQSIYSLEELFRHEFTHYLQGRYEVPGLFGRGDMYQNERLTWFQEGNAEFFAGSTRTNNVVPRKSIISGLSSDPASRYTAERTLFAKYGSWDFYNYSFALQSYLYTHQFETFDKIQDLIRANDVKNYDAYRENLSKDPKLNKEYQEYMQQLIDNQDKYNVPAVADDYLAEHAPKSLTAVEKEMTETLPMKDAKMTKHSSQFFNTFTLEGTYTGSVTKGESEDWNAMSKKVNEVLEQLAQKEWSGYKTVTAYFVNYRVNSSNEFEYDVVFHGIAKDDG
Data set [7] concerns MMP-1, -2, -3, -7, -8, and -14. Nature of the data set: Human MMP inhibition assay, statements on the whole panel. The note with it: for inhibition of the tested MMPs: tested at 100 µM. The format is biochemical.
The target of data set [8] is T1, ColH-PD.
Data set [9] deals with HEP G2 cells. Particulars: human.
Data set [10] concerns LasB. The data set is classed as biochemical, P. aeruginosa.
Data set [11] concerns the target catalytic domain of MMP-7 (Homo sapiens, UniProt P09237). Put plainly: biochemical.
The conditions of data set [12]: 10 mM Hepes pH 7.4 (10% methanol) at 22.5°C, experimental time frame.
Data set [13] concerns the target T1, ColH-PD. The source holds these as a separate data set.
The target in data set [14] is T1, ColH-PD. Nature of the data set: biochemical. The format is binding, Clostridium histolyticum.
A short description of data set [15]: physchem. The note with it: buffer, pH 7.5.
In data set [16] the test system is HEP G2 cells. Nature of the data set: Cytotoxicity assay. Particulars: 48 h.

“Also recorded” adds a separate entry of the source. Like-named read-outs stand apart in the source and are kept apart here. Non-standard residues stand in square brackets, D forms with d. Residues, ends and D or L forms follow the SMILES beside them. *: point of attachment. Dnp = O=[N+]([O-])c1ccc(*)c([N+](=O)[O-])c1; Mca = COc1ccc2c(CC(=O)*)cc(=O)oc2c1; Dap = NC[C@H](N)C(=O)O

T1 sequence (Q46085 331-721 limits assumed): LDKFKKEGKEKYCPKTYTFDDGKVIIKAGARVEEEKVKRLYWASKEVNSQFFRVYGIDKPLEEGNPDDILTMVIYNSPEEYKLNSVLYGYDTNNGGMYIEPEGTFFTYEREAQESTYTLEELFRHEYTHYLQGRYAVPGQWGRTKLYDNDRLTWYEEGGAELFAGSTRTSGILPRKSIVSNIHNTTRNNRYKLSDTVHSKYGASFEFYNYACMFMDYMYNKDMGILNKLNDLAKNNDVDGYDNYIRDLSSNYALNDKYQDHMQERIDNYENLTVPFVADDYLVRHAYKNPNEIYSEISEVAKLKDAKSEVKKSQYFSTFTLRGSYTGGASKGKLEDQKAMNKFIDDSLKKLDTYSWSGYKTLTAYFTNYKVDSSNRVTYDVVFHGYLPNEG
catalytic domain of MMP-7, sequence (P09237 95-267): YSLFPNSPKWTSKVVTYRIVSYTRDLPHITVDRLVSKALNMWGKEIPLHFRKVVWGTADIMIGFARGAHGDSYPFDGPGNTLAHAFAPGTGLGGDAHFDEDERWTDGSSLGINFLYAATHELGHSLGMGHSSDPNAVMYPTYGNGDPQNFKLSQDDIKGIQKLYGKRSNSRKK
amine-coupled peptidase domain of ColH (ColH-PD), sequence (Q46085 331-721 limits assumed): as the sequence (Q46085 331-721 limits assumed) above

As for “N-(3-[2-furyl]acryloyl)-L-leucyl-glycyl-L-prolyl-L-alanine [FALGPA]”, the “MW-normalized SPR response” value in [1] worked out at 35 μ-refractive index units.

Regarding `NC(=O)SCC(=O)Nc1ccccc1` [Compound 1], in [2], the concentration for half-maximal inhibition (IC50) came out at 25000 ± 6000 nM.

In [2], `NC(=O)SCC(=O)Nc1cccc(F)c1` [Compound 10] returned an IC50 of 23000 ± 3000 nM.

Regarding `CC(=O)c1ccc(NC(=O)CSC(N)=O)cc1` [Compound 3], the remaining activity at 100 µM in [3] was not above 5%; in data set [5], not above 5%; in data set [2] (read-out: residual activity of ColH-PD), less than 10%; in data set [6], not above 5%. The molecule further came in with an inhibition at 100 µM in data set [4] of 25%. Besides, the “selectivity for ColH over MMPs” value in data set [7] is given as “more than 1000 fold”. In [7], the “inhibition of the tested MMPs” value is listed as “no or negligible inhibition”.

For the molecule `CCOc1ccc(NC(=O)CSC(=S)N(CC)CC)cc1` [Compound 17], in [8], the “Inhibition at 100 μM (%)” value is listed as “no inhibition”.

For the molecule `CC(=O)c1ccc(NC(=O)CS)cc1` [Compound 13], in [9], the “reduction of viability (%)” value worked out at 17 ± 12%. The “lower activity toward LasB compared to ColH” value in data set [10] was “more than 1000 fold”. For the same molecule, the “selectivity against MMPs” value in [7] is reported as “similarly high selectivity against MMPs”.

In data set [2], `O=C(CS)Nc1ccccc1Cl` [Compound 15] showed an IC50 of 40000 ± 9000 nM.

Turning to `COc1ccc(NC(=O)CSC(N)=O)cc1` [Compound 5], in data set [2], the IC50 worked out at 71 ± 9 nM.

Take “isoamylphosphonyl-Gly-Pro-Ala [reference compound]”: in data set [8] (40 µM), the “inhibition of ColH-PD” value is recorded as 81 ± 1%.

`NC(=O)SCC(=O)Nc1cccc(Cl)c1` [Compound 9] yielded an IC50 in data set [2] of 19000 ± 3000 nM.

`CCOc1ccc(NC(=O)CSC(N)=O)cc1` [Compound 8] yielded a concentration for half-maximal inhibition (IC50) in data set [2] of 190 ± 30 nM.

With `CNC(=O)[C@H](Cc1ccccc1)NC(=O)[C@H](CC(C)C)[C@H](CSc1cccs1)C(=O)NO` [batimastat, reference compound], the “reduction of viability (%)” value in [9] (48 h, 100 μM) is on record as 13 ± 7%. For the same molecule, in [3], the “inhibition of ColG-CU” value is reported as “inhibited”. Also, the IC50 is 7 ± 0.2 nM in data set [11] and less than 10 nM in data set [7] (MMP-1, -2, -3, -7, -8, -14, read-out: IC50 values for all of these MMPs). Besides, the “inhibition of ColT-PD” value in [5] was “inhibited”. For the same molecule, the “inhibition of ColH-PD” value in data set [8] is “inhibited”. Moreover, in data set [6], the “inhibition of ColQ1-CU” value is on record as “inhibited”.

With `Cc1ccc(NC(=O)CSC(N)=O)cc1` [Compound 6], the IC50 in data set [2] is 120 ± 10 nM. For the same molecule, the “decreased IC50 compared to compound 2” value in [8] is given as 16 fold.

In the case of `CCN(CC)C(=S)SCC(=O)Nc1ccc(Br)cc1` [Compound 18], the “Inhibition at 100 μM (%)” value in data set [8] is given as “no inhibition”.

Turning to `CCN(CC)C(=S)SCC(=O)Nc1ccc(C(C)=O)cc1` [Compound 21], the inhibition at 100 µM in data set [2] (read-out: Inhibition at 100 μM (%)) is 12 ± 3%. The “hydrolysis to the corresponding free thiol 13” value in [12] is given as “no hydrolysis”.

On to `COc1ccc2c(CC(=O)N[C@@H](C)C(=O)NCC(=O)N3CCC[C@H]3C(=O)N3CCC[C@H]3C(=O)NCC(=O)N3CCC[C@H]3C(=O)N[C@@H](CNc3ccc([N+](=O)[O-])cc3[N+](=O)[O-])C(=O)NCC(=O)N[C@@H](CCCNC(=N)N)C(N)=O)cc(=O)oc2c1` [Mca-Ala-Gly-Pro-Pro-Gly-Pro-Dpa-Gly-Arg-NH2] (Mca-AGPPGP[Dap](Dnp)GR-NH2), for which the Km in [13] came to 62 ± 8 µM.

Molecule `COC(=O)c1ccc(NC(=O)CSC(N)=O)cc1` [Compound 4] gave an IC50 in data set [2] of 44 ± 7 nM.

Turning to `NC(=O)SCC(=O)Nc1ccc(Cl)cc1` [Compound 7], in data set [3], the remaining activity at 100 µM was not above 5%. Besides, the remaining activity at 100 µM in data set [5] is not above 5%. Moreover, in data set [14], the Kd was 309 ± 45 nM, the “N (stoichiometry)” value is given as 0.54 ± 0.05, the ΔG result is listed as “–8.9 ± 0.1 kcal mol^–1” and the ΔH result is “–12.7 ± 1.2 kcal mol^–1”. Further, in data set [14], the “–TΔS” value was determined as 3.8 ± 1.3 kcal mol^–1. Moreover, the IC50 in data set [2] was found to be 190 ± 20 nM. The “decrease in IC50 compared to meta-chloro-substituted counterpart 9” value in data set [8] came out at 100 fold. For the same molecule, in data set [6], the remaining activity at 100 µM was not above 5%. Besides, in data set [7], the “selectivity for ColH over MMPs” value is recorded as “more than 1000 fold” and the “inhibition of the tested MMPs” value was “no or negligible inhibition”. Further, the half-life in data set [15] worked out at 26.8 ± 1.4 min.

In the case of `Cc1ccc(NC(=O)CSC(N)=O)cc1C` [Compound 2], the midpoint of inhibition in data set [2], the IC50, lay at 1900 ± 300 nM. Further, the inhibition at 40 µM in data set [2] (read-out: inhibition of ColH-PD) was found to be 82 ± 3%.

For the molecule `O=C(CS)Nc1ccc(Cl)cc1` [Compound 14], the “reduction of viability (%)” value in data set [9] was found to be 28 ± 12%. In data set [14], the Kd was found to be 360 ± 38 nM, the “N (stoichiometry)” value is recorded as 0.48 ± 0.03, the ΔG result was “–8.8 ± 0.1 kcal mol^–1” and the ΔH entry is reported as “–15.4 ± 0.3 kcal mol^–1”. Also, the “–TΔS” value in data set [14] was found to be 6.6 ± 0.4 kcal mol^–1. Further, it took 210 ± 10 nM to reach half-maximal inhibition in data set [2] (IC50). In [7], the “selectivity against MMPs” value is “similarly high selectivity against MMPs”.

Consider `COc1cccc2c1C(=O)c1c(O)c3c(c(O)c1C2=O)C[C@@](O)(C(=O)CO)C[C@@H]3O[C@H]1C[C@H](N)[C@H](O)[C@H](C)O1` [doxorubicin], for which the “reduction of viability (%)” value in data set [16] (1 μM) stood at 50 ± 5%.

In the case of `CO[C@H]1/C=C/O[C@@]2(C)Oc3c(C)c(O)c4c(O)c(c(/C=N/N5CCN(C)CC5)c(O)c4c3C2=O)NC(=O)/C(C)=C\C=C\[C@H](C)[C@H](O)[C@@H](C)[C@@H](O)[C@@H](C)[C@H](OC(C)=O)[C@@H]1C` [rifampicin], the “reduction of viability (%)” value in [16] (100 μM) was 29 ± 5%.

Regarding `CCN(CC)C(=S)SCC(=O)Nc1ccc(C(C)C)cc1` [Compound 19], the “Inhibition at 100 μM (%)” value in data set [8] is on record as “no inhibition”.

Consider `NC(=O)SCC(=O)Nc1ccccc1Cl` [Compound 12], for which the IC50 in data set [2] stood at 31000 ± 7000 nM. Besides, in data set [15], the half-life was 20.6 ± 0.9 min.

Regarding `NC(=O)CCC(=O)Nc1ccccc1` [Compound 16], in [8], the “inhibitory activity toward ColH-PD” value was “devoid of any activity; also recorded: no inhibition”.

Regarding `CCN(CC)C(=S)SCC(=O)Nc1ccc(F)cc1` [Compound 20], the “Inhibition at 100 μM (%)” value in [8] is given as “no inhibition”.
